By ΔTm is commonly meant the shift of the melting midpoint relative to a reference.

From article PMC10489911 (2023) come the findings set out here.

Each structure is given as a SMILES string.

In test [1] the test system is AG3(T2AG3)3 (G4-Tel, telomeric G4) (DNA, G4) AGGGTTAGGGTTAGGGTTAGGG
The test is described as follows: CD melting at 295 nm. Conditions: K+ 100 mM KCl, plus potassium phosphate; 20 mM phosphate, pH 6.8; 2 equivalents of ligand; Tm 56.1 alone.

Test [2] shares this test system. In words: UV-Vis titration. Conditions: K+ 100 mM KCl, plus potassium phosphate, 20 mM phosphate, pH 6.8, ligand 2 μM.
Test [3] has the same test system. In words: G4-FID fluorescence displacement. Conditions: K+ 100 mM KCl, plus potassium phosphate, PBS pH 6.8, 25 °C, thiazole orange displaced.

With `C[n+]1ccc(-c2cc3c(cc2-c2cc[n+](C)cc2)-c2nc-3c(-c3ccccc3)c3ccc([n-]3)c(-c3ccccc3)c3nc(c(-c4ccccc4)c4ccc([n-]4)c2-c2ccccc2)-c2cc(-c4cc[n+](C)cc4)c(-c4cc[n+](C)cc4)cc2-3)cc1.[Ni+2]`, in test [1], the ΔTm came to 8.5 °C. Besides, in test [2] (ligand aggregates in buffer), the Kb is reported as 3.71 ± 1.28 × 10^6 M^−1. The DC50 in test [3] (text prints 1.04) amounted to 1020 ± 60 nM.
Regarding `C[n+]1ccc(-c2cc3c(cc2-c2cc[n+](C)cc2)-c2nc-3c(-c3ccccc3)c3ccc([n-]3)c(-c3ccccc3)c3nc(c(-c4ccccc4)c4ccc([n-]4)c2-c2ccccc2)-c2cc(-c4cc[n+](C)cc4)c(-c4cc[n+](C)cc4)cc2-3)cc1.[Zn+2]`, in test [1], the ΔTm is 7.4 °C. In test [2] (ligand aggregates in buffer), the Kb is recorded as 7.05 ± 1.31 × 10^6 M^−1. For the same compound, in test [3], the DC50 came to 420 ± 80 nM.
Take `C[n+]1ccc(-c2cc3c(cc2-c2cc[n+](C)cc2)-c2nc-3c(-c3ccccc3)c3ccc([nH]3)c(-c3ccccc3)c3nc(c(-c4ccccc4)c4ccc([nH]4)c2-c2ccccc2)-c2cc(-c4cc[n+](C)cc4)c(-c4cc[n+](C)cc4)cc2-3)cc1`: in test [1], the ΔTm is 2.3 °C. The Kb in test [2] is 6.01 ± 1.11 × 10^6 M^−1. Besides, the DC50 in test [3] (table prints 0.90 ± 0.04, its ratio 2.01 fits 0.99) is 990 nM.
